Test results: patent US12492173B2, “Herbicidal substituted N-tetrazolyl aryl carboxamides” (Bayer Aktiengesellschaft, priority 2019, dated 2025)

How the values were obtained:
Type in all cases: in vivo
Abutilon theophrasti [1] = assay: Post-emergence herbicidal action, ABUTH; parameters: key: % herbicidal action vs untreated; 100 = plants died, 0 = like control; details: post-emergence, dosage 80 g/ha
Procedure: (§1) [table] 2. Post-Emergence Herbicidal Action Against Harmful Plants Seeds of monocotyledonous and dicotyledonous weed and crop plants are laid out in sandy loam soil in wood-fiber pots, covered with soil and cultivated in a greenhouse under good growth conditions. 2 to 3 weeks after sowing, the test plants are treated at the one-leaf stage. The compounds of the invention, formulated in the form of wettable powders (WP) or as emulsion concentrates (EC), are then sprayed onto the green parts of the plants in the form of an aqueous suspension or emulsion at a water application rate equating to 600 to 800 l/ha, with addition of 0.2% wetting agent. After the test plants have been left to stand in the greenhouse under optimal growth conditions for about 3 weeks, the action of the preparations is assessed visually in comparison to untreated controls (herbicidal action in percent (%): 100% activity=the plants have died, 0% activity=like control plants). […] The tables below illustrate, in an exemplary manner, the post-emergence herbicidal action of the compounds according to the invention, the herbicidal activity being stated in percent. In the experiments that follow, herbicidal action of numerous inventive compounds and the known compounds that are structurally closest from D1 (WO 2012/028579 A1) and D2 (WO 2018/202535 A1) were compared under the above-specified conditions by the pre-emergence and post-emergence method. The example numbers given in the tables relate to the compounds disclosed in the respective documents. In addition to the compounds disclosed in D1 and D2, the following compounds V-1 to V-14 that are encompassed by D1 or D2 but are not compounds specified therein were used in the comparative experiments: • V-1: 2-(methylsulfanyl)-3-(methylsulfinyl)-N-(1-methyl-1H-tetrazol-5-yl)-4-(trifluoromethyl)benzamide • V-2: 2-(methylsulfanyl)-3-(methylsulfonyl)-N-(1-methyl-1H-tetrazol-5-yl)-4-(trifluoromethyl)benzamide • V-3: 2,3-bis(ethylsulfanyl)-N-(1-methyl-1H-tetrazol-5-yl)-4-(trifluoromethyl)benzamide • V-4: 2-chloro-3-(ethylsulfanyl)-N-(1-methyl-1H-tetrazol-5-yl)-4-(trifluoromethyl)benzamide • V-5: 2-chloro-4-iodo-3-(methylsulfanyl)-N-(1-methyl-1H-tetrazol-5-yl)benzamide • V-6: 2-chloro-4-iodo-3-(methylsulfinyl)-N-(1-methyl-1H-tetrazol-5-yl)benzamide • V-7: 2-chloro-4-iodo-3-(methylsulfonyl)-N-(1-methyl-1H-tetrazol-5-yl)benzamide • V-8: 2-bromo-3-(methylsulfanyl)-N-(1-methyl-1H-tetrazol-5-yl)-4-(trifluoromethyl)benzamide • V-9: 2-bromo-3-(methylsulfinyl)-N-(1-methyl-1H-tetrazol-5-yl)-4-(trifluoromethyl)benzamide • V-10: 2-bromo-3-(methylsulfonyl)-N-(1-methyl-1H-tetrazol-5-yl)-4-(trifluoromethyl)benzamide • V-11: 2-bromo-3-(ethylsulfanyl)-N-(1-methyl-1H-tetrazol-5-yl)-4-(trifluoromethyl)benzamide • V-12: 2-bromo-3-(ethylsulfinyl)-N-(1-methyl-1H-tetrazol-5-yl)-4-(trifluoromethyl)benzamide • V-13: 2-bromo-3-(ethylsulfonyl)-N-(1-methyl-1-1H-tetrazol-5-yl)-4-(trifluoromethyl)benzamide • V-14: 2-cyclopropyl-3-(ethylsulfanyl)-N-(1-methyl-1H-tetrazol-5-yl)-4-(trifluoromethyl)benzamide Herbicidal Pre-Emergence Action: […]

Pharbitis purpurea = assay: Post-emergence herbicidal action, PHBPU; details: post-emergence, dosage 80 g/ha
Procedure: as §1

Echinochloa crus-galli [2] = assay: Post-emergence herbicidal action, ECHCG; parameters: key: % herbicidal action vs untreated; 100 = plants died, 0 = like control; details: post-emergence, dosage 80 g/ha
Procedure: as §1

Echinochloa crus-galli [3] = assay: Pre-emergence herbicidal action, ECHCG; details: dosage 320 g/ha
Source text: (§2) 1. Pre-Emergence Herbicidal Action Against Harmful Plants Seeds of monocotyledonous and dicotyledonous weed plants and crop plants are laid out in sandy loam soil in wood-fiber pots and covered with soil. The compounds of the invention, formulated in the form of wettable powders (WP) or as emulsion concentrates (EC), are then applied to the surface of the covering soil in the form of an aqueous suspension or emulsion at a water application rate equating to 600 to 800 l/ha, with addition of 0.2% wetting agent. After the treatment, the pots are placed in a greenhouse and kept under good growth conditions for the trial plants. The damage to the test plants is scored visually after a test period of 3 weeks by comparison with untreated controls (herbicidal activity in percent (%): 100% activity=the plants have died, 0% activity=like control plants). […] The tables below illustrate, in an exemplary manner, the […] herbicidal action of the compounds according to the invention, the herbicidal activity being stated in percent. [table] In the experiments that follow, herbicidal action of numerous inventive compounds and the known compounds that are structurally closest from D1 (WO 2012/028579 A1) and D2 (WO 2018/202535 A1) were compared under the above-specified conditions by the pre-emergence and post-emergence method. The example numbers given in the tables relate to the compounds disclosed in the respective documents. In addition to the compounds disclosed in D1 and D2, the following compounds V-1 to V-14 that are encompassed by D1 or D2 but are not compounds specified therein were used in the comparative experiments: • V-1: 2-(methylsulfanyl)-3-(methylsulfinyl)-N-(1-methyl-1H-tetrazol-5-yl)-4-(trifluoromethyl)benzamide • V-2: 2-(methylsulfanyl)-3-(methylsulfonyl)-N-(1-methyl-1H-tetrazol-5-yl)-4-(trifluoromethyl)benzamide • V-3: 2,3-bis(ethylsulfanyl)-N-(1-methyl-1H-tetrazol-5-yl)-4-(trifluoromethyl)benzamide • V-4: 2-chloro-3-(ethylsulfanyl)-N-(1-methyl-1H-tetrazol-5-yl)-4-(trifluoromethyl)benzamide • V-5: 2-chloro-4-iodo-3-(methylsulfanyl)-N-(1-methyl-1H-tetrazol-5-yl)benzamide • V-6: 2-chloro-4-iodo-3-(methylsulfinyl)-N-(1-methyl-1H-tetrazol-5-yl)benzamide • V-7: 2-chloro-4-iodo-3-(methylsulfonyl)-N-(1-methyl-1H-tetrazol-5-yl)benzamide • V-8: 2-bromo-3-(methylsulfanyl)-N-(1-methyl-1H-tetrazol-5-yl)-4-(trifluoromethyl)benzamide • V-9: 2-bromo-3-(methylsulfinyl)-N-(1-methyl-1H-tetrazol-5-yl)-4-(trifluoromethyl)benzamide • V-10: 2-bromo-3-(methylsulfonyl)-N-(1-methyl-1H-tetrazol-5-yl)-4-(trifluoromethyl)benzamide • V-11: 2-bromo-3-(ethylsulfanyl)-N-(1-methyl-1H-tetrazol-5-yl)-4-(trifluoromethyl)benzamide • V-12: 2-bromo-3-(ethylsulfinyl)-N-(1-methyl-1H-tetrazol-5-yl)-4-(trifluoromethyl)benzamide • V-13: 2-bromo-3-(ethylsulfonyl)-N-(1-methyl-1-1H-tetrazol-5-yl)-4-(trifluoromethyl)benzamide • V-14: 2-cyclopropyl-3-(ethylsulfanyl)-N-(1-methyl-1H-tetrazol-5-yl)-4-(trifluoromethyl)benzamide Herbicidal Pre-Emergence Action: […]

Stellaria media [4] = assay: Pre-emergence herbicidal action, STEME; details: dosage 320 g/ha
Source text: as §2

Stellaria media [5] = assay: Post-emergence herbicidal action, STEME; parameters: key: % herbicidal action vs untreated; 100 = plants died, 0 = like control; details: post-emergence, dosage 80 g/ha
Procedure: as §1

Amaranthus retroflexus [6] = assay: Post-emergence herbicidal action, AMARE; parameters: key: % herbicidal action vs untreated; 100 = plants died, 0 = like control; details: post-emergence, dosage 80 g/ha
Procedure: as §1

Veronica persica [7] = assay: Pre-emergence herbicidal action, VERPE; details: dosage 320 g/ha
Source text: as §2

Viola tricolor [8] = assay: Post-emergence herbicidal action, VIOTR; parameters: key: % herbicidal action vs untreated; 100 = plants died, 0 = like control; details: post-emergence, dosage 80 g/ha
Procedure: as §1

Setaria viridis = assay: Post-emergence herbicidal action, SETVI; parameters: key: % herbicidal action vs untreated; 100 = plants died, 0 = like control; details: post-emergence, dosage 80 g/ha
Procedure: as §1

Abutilon theophrasti [9] = assay: Pre-emergence herbicidal action, ABUTH; details: dosage 320 g/ha
Source text: as §2

Amaranthus retroflexus [10] = assay: Pre-emergence herbicidal action, AMARE; details: dosage 320 g/ha
Source text: as §2

Viola tricolor [11] = assay: Pre-emergence herbicidal action, VIOTR; details: dosage 320 g/ha
Source text: as §2

Matricaria inodora [12] = assay: Post-emergence herbicidal action, MATIN; parameters: key: % herbicidal action vs untreated; 100 = plants died, 0 = like control; details: post-emergence, dosage 80 g/ha
Procedure: as §1

Matricaria inodora [13] = assay: Pre-emergence herbicidal action, MATIN; details: dosage 320 g/ha
Source text: as §2

Veronica persica [14] = assay: Post-emergence herbicidal action, VERPE; parameters: key: % herbicidal action vs untreated; 100 = plants died, 0 = like control; details: post-emergence, dosage 80 g/ha
Procedure: as §1

Compound	Herbicidal action against ABUTH (Abutilon theophrasti [1])	Herbicidal action against PHBPU (Pharbitis purpurea)	Herbicidal action against ECHCG (Echinochloa crus-galli [2])	herbicidal action ECHCG (Echinochloa crus-galli [3]) [%]	herbicidal action STEME (Stellaria media [4]) [%]	Herbicidal action against STEME (Stellaria media [5])	Herbicidal action against AMARE (Amaranthus retroflexus [6])	herbicidal action VERPE (Veronica persica [7]) [%]	Herbicidal action against VIOTR (Viola tricolor [8])	Herbicidal action against SETVI (Setaria viridis)	herbicidal action ABUTH (Abutilon theophrasti [9]) [%]	herbicidal action AMARE (Amaranthus retroflexus [10]) [%]	herbicidal action VIOTR (Viola tricolor [11]) [%]	Herbicidal action against MATIN (Matricaria inodora [12])	herbicidal action MATIN (Matricaria inodora [13]) [%]	Herbicidal action against VERPE (Veronica persica [14])
CSCc1c(S(C)(=O)=O)ccc(C(=O)Nc2nnnn2C)c1Cl [Example 1-278]	90	90	100	90	80	90	100	90	100	100	90	100	–	–	–	–
CCCn1nnnc1NC(=O)c1ccc(C)c(CSC)c1Cl [Example 3-287]	90	80	90	100	90	100	100	90	90	–	–	100	80	100	100	–
COc1c(C(=O)Nc2nnnn2C)ccc(C(F)(F)F)c1CS(C)(=O)=O [Example 1-136]	–	90	90	100	80	100	90	100	90	90	100	100	80	90	90	100
